Assay results from patent EP0488965A1, “Phthalidilidene derivatives of carnitine and alkanoylcarnitines and pharmaceutical compositions containing them” (Sigma-Tau Industrie Farmaceutiche Riunite S.p.A., priority 1990, dated 1992).

Assays:
[1] = system: PAF-induced platelet aggregation; assay: PAF-induced platelet aggregation in platelet rich plasma; type: cell-based, rabbits; conditions: Oryctolagus cuniculus, 2 min, compound 10^-5M, 2 minutes of incubation, rabbit PRP
Protocol: Blood was collected from male rabbits (HY/Charles River, Italy) by heart puncture using a plastic syringe and transferred immediately into plastic tubes containing 3.8% (by weight) solution of sodium citrate (0.1 ml/ml blood).
PRP (Platelet Rich Plasma) was obtained by plasma centrifugation at 145 x g for 5 minutes at 22°C. Platelet number was determined with a CA 580A (Delcon) "platelet counter". The platelet number was adjusted to the fixed value of […] by adding PPP (Platelet Poor Plasma). PPP was obtained by centrifuging blood at 1600 x g for 10 minutes at 22°C.
(§1) Platelet aggregation was determined photometrically (G.V.R. Born, Nature 194, 927; 1962) with an ELVI 840 aggregometer in plastic tubes under continuous stirring at 1000 rpm.
(§2) Maximal light transmission (100% ) was recorded by reading PPP, while 0% transmission was recorded by reading PRP. The PRP aggregation degree induced by the aggregation factor (PAF) was calculated as percentage of maximal light transmittance obtained with PPP using 250 µL samples of PRP.
(§3) The compounds were dissolved in bidistilled water at the concentration of 10⁻⁵ M and tested after 2 minutes of incubation.
(§4) Aggregation inhibition was calculated as percentage of the value obtained in the presence of the aggregating agent only.

mice = assay: Observation of behaviour and death rate in mice (Irwin method); type: in vivo; conditions: for SYMPTOMS: male mice, 4 animals/dose, n.e. = no effect; for DEATH RATE: mouse, in vivo
Protocol: The observation of normal behaviour in mice was conducted following the method by S. Irwin, Psychopharmacologia 13, 222 ( 1968). This method allows alterations of some behavioural, neurophysiological and neurovegetative parameters directly detectable by the experimenter to be visualized.
The test was conducted in male mice [Crl;(CD-I)(ICR)BR, Charles River - Italy] weighing 22-25 g, following oral administration of the compounds suspended in carboxymethylcellulosa (0.5% by weight in H₂O) to groups of 4 animals/dose.
The animals were kept under continuous observation for five hours following treatment and twice a day for the subsequent five days.
Death rate was also observed during the whole test period. The initial administered dose was 1,000 mg/kg per os; lower doses were administered following death of some animals or after marked effects at the initial dose were dected.

[2] = system: ADP-induced platelet aggregation; assay: ADP-induced platelet aggregation in platelet rich plasma; type: cell-based, rats; conditions: 2 min, compound 10^-5M, 2 minutes of incubation, rat PRP
Protocol: as §1, §2, §3, §4
Blood was drawn from the abdominal aorta of male rats (Crl:(WI)BR, Charles River, Italy) under barbiturate anaesthesia and quickly transferred into plastic tubes containing 0.1 mL/mL blood of 3.8% (by weight) solution of sodium citrate. PRP was obtained by plasma centrifugation at 115 x g for 5 minutes at 22°C and PPP by centrifugation at 1600 x g for 10 minutes. The final PRP platelet number was adjusted to the fixed value of […] of PRP by adding PPP.
Platelet count was made with a CA580 A(Delcan) platelet counter. The same procedure outlined in the paragraph "PAF aggregation" was followed for the ADP-induced aggregation.

[3] = molecular target: T1, PAF (platelet activating factor) receptors (Oryctolagus cuniculus, UniProt G1TEI7); assay: Binding to PAF receptors (3H-PAF displacement in rabbit platelets); conditions: 50% inhibiting concentration of specific receptor binding, 3H-PAF 0.5 nM, 30 minutes at 25°C
T1 construct: Blood was drawn via indracardiac puncture from male rabbits; from tissue; host or cells: Platelets from the blood of male rabbits (HY/CR strain, Charles River, Italy)
Protocol: The binding of the compounds under examination to rabbit platelet receptors was studied following the procedure disclosed by D. Nunez et al, Eur J. Pharmacol. 123, 197 (1986).
Blood was drawn via indracardiac puncture from male rabbits (HY/CR strain-Charles River, Italy) weighing 2.5-3.0 Kg.
Blood was diluted (1:9) in a ACD (0.8% citric acid, 2.2% trisodium citrate, 2.45% glucose, weight percentages) solution and centrifuged at 100 x g for 15 minutes.
The precipitate was suspended in the incubation buffer at […] platelet/ml concentration, immediately before binding.
The platelet number and possible erythrocyte contamination was controlled with a platelet counter DELCON CA480.
Platelets were incubated in polyethylene tubes with ³H-PAF (0.5 nM) for 30 minutes at 25°C. The test compounds were added to a volume of 200 µl. The final volume was equal to 500 µl. Incubation was stopped by rapid filtration under vacuum through GF/C filters (WHATMAN) washed with (3x3 ml) cold incubation buffer using a Brondel Cell Harvester filtration system. The filters were counted in 8 mL OptiFluor (Packard) using a TRI-CARB 1900 CA-Packard liquid scintillation spectrometer (about 50% counting efficiency).
The percentage of inhibition of the specific binding receptor-radioligand was calculated for each concentration (mean of incubations in triplicate).
The competition curve, the slope of the curve, and the IC₅₀ value (concentration which inhibits 50% of the specific radioligand-receptor binding) were calculated with the "All fit" program (A. De Lean et al., Am. J. Physiol. 235, E97, 1978) runned in a 55-SX IBM computer.

T1 sequence (G1TEI7 1-342): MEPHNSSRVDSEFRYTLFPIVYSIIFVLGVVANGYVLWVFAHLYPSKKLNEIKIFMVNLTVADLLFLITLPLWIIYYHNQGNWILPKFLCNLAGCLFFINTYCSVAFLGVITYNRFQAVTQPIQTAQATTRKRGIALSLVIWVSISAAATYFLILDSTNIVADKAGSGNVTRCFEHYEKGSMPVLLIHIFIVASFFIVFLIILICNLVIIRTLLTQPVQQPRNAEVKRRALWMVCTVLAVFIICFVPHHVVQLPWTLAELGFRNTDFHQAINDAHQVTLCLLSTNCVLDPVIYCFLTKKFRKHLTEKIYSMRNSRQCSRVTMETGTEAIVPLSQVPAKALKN

| SMILES | inhibition at 10 µM [1] [%] | SYMPTOMS (mice; 600 mg/kg per os) | SYMPTOMS (mice; 1000 mg/kg per os) | DEATH RATE (mice; 600 mg/kg) | DEATH RATE (mice; 1000 mg/kg) | inhibition at 10 µM [2] [%] | IC50 [3] [nM] |
| --- | --- | --- | --- | --- | --- | --- | --- |
| CC(=O)O[C@H](CC(=O)OC/C=C1\OC(=O)c2cc(Cl)ccc21)C[N+](C)(C)C [ST 804] | 96 | salivation | salivation | 0/4 | 1/4 | 13 | 19 |
| CC(=O)O[C@H](CC(=O)OC/C=C1\OC(=O)c2ccccc21)C[N+](C)(C)C [ST 739] |  | n.e. | jerks | 0/4 | 2/4 |  | 5300 |
| CC(C)CC(=O)O[C@H](CC(=O)OC/C=C1\OC(=O)c2ccccc21)C[N+](C)(C)C [ST 776] | 100 | n.e. | convulsion, salivation | 0/4 | 2/4 | 5 | 3600 |
| CC(C)C(=O)O[C@H](CC(=O)OC/C=C1\OC(=O)c2cc(Cl)ccc21)C[N+](C)(C)C [ST 806] | 95 | salivation | salivation | 0/4 | 1/4 | 18 | 18 |
| CC(C)CC(=O)O[C@H](CC(=O)OC/C=C1\OC(=O)c2cc(Cl)ccc21)C[N+](C)(C)C [ST 803] | 72 |  | diarrhea |  | 0/4 | 8 | 6.6 |
| C[N+](C)(C)C[C@H](O)CC(=O)OC/C=C1\OC(=O)c2ccccc21 [ST 736, (Z)-(3-phtalidylidene)ethyl ester of L-carnitine bromide] |  | n.e. | convulsion, salivation | 0/4 | 3/4 |  | 9300 |
| C[N+](C)(C)C[C@H](O)CC(=O)OC/C=C1\OC(=O)c2cc(Cl)ccc21 [ST 801] | 97 |  | salivation |  | 0/4 | 7 | 20 |
| CCC(=O)O[C@H](CC(=O)OC/C=C1\OC(=O)c2ccccc21)C[N+](C)(C)C [ST 768] |  | n.e. | convulsion, salivation diarrhea, lacrimation | 0/4 | 1/4 |  | 6700 |
| CCC(=O)O[C@H](CC(=O)OC/C=C1\OC(=O)c2cc(Cl)ccc21)C[N+](C)(C)C [ST 805] | 40 | salivation | salivation | 0/4 | 1/4 | 10 | 22 |
| CC(C)C(=O)O[C@H](CC(=O)OC/C=C1\OC(=O)c2ccccc21)C[N+](C)(C)C [ST 775] |  |  | n.e. |  | 0/4 |  | 2000 |
